{"source": "paper PMC11240924", "about": "“Isolation, Identification, and Biological Activities of a New Chlorin e6 Derivative” (International Journal of Molecular Sciences, 2024)", "test": "Singlet oxygen photogeneration (DPBF quenching)", "conditions": "1 µM, DMSO, DPBF 50 μM, 660 nm laser 0.5 J/cm^2", "procedure": "Singlet oxygen photoregeneration was carried out using 1, 3-diphenylisobenzofuran (DPBF) in DMSO. DPBF is a selective ^1O2 acceptor that reacts with ^1O2. The sample solutions of DPBF (50 μM) which contained DPBF only (50 μM, as a control), MB (1, 5, and 10 μM), chlorin e6 (1, 5, and 10 μM), and rhodin g7 7^1-ethyl ester (1, 5, and 10 μM) were prepared under dark conditions. All of the samples were placed in a 96-well plate, which was covered with aluminum foil. The samples were then irradiated (660 nm, 50 mW, 0.5 J/cm^2) for 1 min and 40 s, and after irradiation, the visible spectra of the sample solutions were measured spectrophotometrically. The normalized absorbance of DPBF at 418 nm was measured in these samples. The ^1O2 photo-generation activities of MB, chlorin e6, and rhodin g7 7^1-ethyl ester can be compared with the different absorbance decay of each sample relative to the DPBF control sample."}
{"smiles": "CN(C)c1ccc2nc3ccc(=[N+](C)C)cc-3sc2c1", "note": "[MB, Methylene blue, reference compound]", "values": [{"measurement": "^1O2 generation (DPBF absorbance at 418 nm)", "value": 22.22, "unit": "%"}]}
